According to patent US10214507B2, “Carbazole-containing amides, carbamates, and ureas as cryptochrome modulators” (Reset Therapeutics, Inc., priority 2014, dated 2019):
Like-named read-outs stand apart in the source and are kept apart here.

Legend:
[1] = system: db/db mouse model of type II diabetes; assay: 7 day dosing, glucose metabolism, insulin and compound levels in db/db mice; assay type: in vivo; settings: 50 mg/kg PO 7 days
Source text: (§1) Significance was accepted when p<0.05.

[2] = as above; assay type: in vivo, mouse; settings: male, mouse, around 8 hours after last dose, 50 mg/kg PO 7 days
Source text: as §1

[3] = system: core clock gene mRNAs in livers of ICR mice; assay: Four day study, liver clock gene mRNA by RT-qPCR, ICR mice; assay type: in vivo, mouse; settings: 50 mg/kg PO BID 4 days
Description: Male ICR mice (weighing 30-35 g), obtained from Charles River Laboratories (Hollister, CA), were used for the experiment following at least 3 days of acclimation. Mice were dosed with vehicle (WFI or 10% Kolliphor) or compound (50 mg/kg, dose volume 5 mL/kg, PO) for 4 days BID (twice a day), beginning in the afternoon of the first day. The last dose of compound or vehicle was administered on the morning of harvest. On the day of harvest (6 hours following the final dose), mice were euthanized by CO2 asphyxiation and 50 mg of liver tissue was excised and placed in a tube containing 500 μl of RNA later.
E.Z.N.A.® HP Total RNA Isolation Kits (R6812-01 and the protocol described in the Manual, Revised 2010) were utilized to prepare and isolate RNA from the liver samples. To prepare the RNA samples, 10-30 mg of sample was removed from RNA-Later and placed in a 1.5 ml microfuge tube. GTC lysis buffer (700 μl) was added to the tissue, which was homogenized with a rotor-stator homogenizer (e.g. Tissue-Tearor, Model #985370 BioSpec Products with 4.5 mm probe, Cat. #985370-04), and then centrifuged at full speed (>13,000×g) for 5 minutes. The cleared supernatant was transferred by pipetting to a DNA Clearance Column Pre-inserted in a 2 mL Collection Tube. The assembled column was centrifuged at 13,000×g for 1 minute, and the flow-through was saved. An equal volume (700 μl) of 70% ethanol was added to the lysate and mixed. The sample was then applied to a HiBind RNA spin column placed into a 2 ml collection tube, which was centrifuged at 10,000×g for 60 seconds at room temperature. RNA Wash Buffer I (250 μl) was added by pipetting directly onto a new HiBind RNA column inserted in a 2 ml collection tube. The assembled column was centrifuged at 10,000×g for 60 seconds. The RNA column was placed into a new 2 ml collection tube. DNase I stock solution is pipetted (75 μl) directly onto the surface of the HiBind RNA resin in each column (Using DNAse Digestion with RNase Free DNase Set (E1091): for each HiBind RNA column, the DNase I stock solution was prepared as followed: E.Z.N.A.® DNase I Digestion Buffer 73.5μl, RNase Free DNase I (20 Kunitz/μl) 1.5 μl=Total Volume 75 μl.). The column with bound RNA was incubated at room temperature (25-30° C.) for 15 minutes. RNA Wash Buffer I (500 μl) was added to the column and placed on a bench top for 2 minutes. After centrifuging at 10,000×g for 60 seconds, discarding the flow-through, 500 μl of RNA Wash Buffer II was added and centrifuged at 10,000×g for 60 seconds. Another 500 μl of RNA Wash Buffer II was added and the column assembly was centrifuged at 10,000×g for 60 seconds. The column was centrifuged for 2 minutes at maximum speed to completely dry the HiBind matrix. The column was placed in a clean 1.5 ml microcentrifuge tube and 40-70 μl of molecular biology grade water is added. After sitting for 1 minute, the column was centrifuged for 2 minutes at maximum speed to elute the RNA. The isolated RNA was collected into the collection tube.
RediPlate 96 RiboGreen RNA Quantification Kit (Invitrogen) RediPlate standard curve was prepared by transferring 20 μl reconstituted RNA standard to a RediPlate well reconstituted in 180 μl RediPlate TE buffer. For liver RNAs prepared from 30-100 mg of tissue using a kit similar to the Omega Bio-Tek HP Total RNA Kit and eluted in RNAse-free water in a volume of 50 μl (microliters), 5 μl of the total RNA is diluted in 195 μl of RediPlate TE buffer (1:40 dilution of RNA), mix. After transferring 5 μl to RediPlate well reconstituted in 195 μl TE buffer and incubating 10 min. at RT, Fluorescence Intensity of wells with standards and samples were read in a Tecan M200 with Excitation set at 480 nm and Emission set at 520 nm with the gain set to −70%. Alternatively, one can use the FlexStation 3 with Ex 488 nm and Em 525 nm and a Cutoff of 515 nm.

[4] = system: C57/Bl6J DIO mice; assay: Increasing dosages of Compound 72 for 7 days in diet-induced obesity mouse model; assay type: in vivo
Source text: Male C57/Bl6J DIO mice were obtained from The Jackson Laboratory (Sacramento, Calif.). […] Animals were accustomed to these conditions for at least 2 weeks before experimentation and used at approximately 24 weeks of age.
as §1
Male C57/Bl6J DIO mice were obtained from The Jackson Laboratory (Sacramento, Calif.). […] Animals were accustomed to these conditions for at least 2 weeks before experimentation and used at approximately 26 weeks of age.

SMILES: O=C1NCCN1CC(O)Cn1c2ccc(F)cc2c2cc(F)ccc21 (stereo not shown) [Compound 72, 1-(3-(3,6-difluoro-9H-carbazol-9-yl)-2-hydroxypropyl)imidazolidin-2-one]
- HOMA-IR [1]: 93.69+/−23.60 units
- fasting blood glucose (FBG) [1]: 385.0 ± 29.69 mg/dL
- glucose AUC calculated from the OGTT [1]: 35942+/−3192
- plasma insulin at t=0 [1]: 3.78 ± 0.69 ng/mL
- plasma insulin at t=2 hr ([1]; after glucose load): 2.53 ± 0.50 ng/mL
- reduction of HOMA-IR ([1]; vs vehicle): 33%
- reduction of insulin at t=0 ([1]; vs vehicle): 20%
- reduction of insulin at t=2 hr ([1]; vs vehicle): 21%
- concentration at 8 h ([2]; liver, read-out: compound level in liver): 670 nM
- concentration at 8 h ([2]; plasma, read-out: compound level in plasma): 530 nM
- Cry2 transcripts ([3]; ICR mice liver): decrease
- increase in Bmal1 mRNA at ZT6 ([3]; ICR mice liver): 4 fold
- liver Per2 expression ([3]; ICR mice, ZT6): suppression
- fasting blood glucose ([4]; 10 mg/kg QD PO 7 days): 206.8 ± 8.36 mg/dL
- glucose AUC from OGTT ([4]; 10 mg/kg QD PO 7 days): 22563+/−1224 units
- fasting blood glucose ([4]; 30 mg/kg QD PO 7 days): 197.5 ± 12.06 mg/dL
- glucose AUC from OGTT ([4]; 30 mg/kg QD PO 7 days): 19033+/−1934 units
- fasting blood glucose ([4]; 100 mg/kg QD PO 7 days): 176.3 ± 7.83 mg/dL
- glucose AUC from OGTT ([4]; 100 mg/kg QD PO 7 days): 19502+/−2404 units
